Laboratory results taken from patent US9796730B2, “Halogenated benzoxazines and their use” (priority 2012, dated 2017).

Key:
Aβ plaques [1] = assay: Detection of Aβ plaques by means of MRT and optical fluorescence measurements in the mice model; type: in vivo, transgenic APP23 mice and non-transgenic control mice; settings: age 28 months, 2 mg/kg body weight
Excerpt: Detection of Aβ Plaques by Means of MRT in the Mice Model
For the MRT measurements a threedimensional gradient echosequence (gre3D) which both comprises T1 as well as T2* parts, and a quantitative T2 value determination sequence (T2map) were used.
The observations made in vivo could also be confirmed ex vivo after a preparation of the brains.

Aβ plaques [2] = assay: Detection of Aβ plaques by means of optical imaging (OI) in the mouse model; type: in vivo, transgenic APPPS1 mice and non-transgenic control mice
Method: Detection of Aβ Plaques by Means of Optical Imaging (OI) in the Mouse Model
The compound was formulated in physiological saline solution (0.9% NaCl) in a concentration of 0.05 mg/ml and intravenously injected into the mice. In the following the mice were examined by means of OI (Aequoria Hamamatsu Optical Imaging System), the signal was detected at 650 nm.
It is clear for the skilled person that this labeling can—depending on the kind of labeling—be realized by any method, such as OI, PET (e.g. with ^76Br, ^75Br or ^18F labeled compounds) or MRT (e.g. with ^19F labeled compounds).
The signal strength was quantified as a relative fluorescence signal, whereby 30 min after the injection was chosen as the reference point in time. The signal strength was calculated by percentage after the subtraction of the auto fluorescence (resulting in relative intensity values, Irel) and then the percentage difference between the transgenic and control mice—in the following referred to as specific binding (Bsp)—was calculated and plotted against the age of the transgenic mice (see FIG. 3). It turned out that there is a significant correlation between the age and the development of the Alzheimer's disease and the signal strength, where it was especially noted that the compound according to the invention has no saturation or ceiling effects in a way that the signal strength is not increasing at a specific concentration of Aβ plaques. To the contrary, at the age of 21 months for the transgenic mice a particularly strong signal has been measured.

[3] = Storage stability of the isolated title compound; type: physicochemical; settings: within 12 hours at −25° C.
Method: The title compound is instable and decomposes within 12 hours to 50% at −25° C. For this reason the title compound is further converted directly after the isolation.

Compound: CCN1CCOc2cc3c(cc21)Oc1cc2c(cc1=N3)OCC[N+]=2CC[19F] [Example 1, 8-Ethyl-4-(2-fluoroethyl)-3,8,9,10-tetrahydro-2H-bis([1,4]oxazino)[2,3-b:3′,2′-i]phenoxazin-4-ium chloride]
- enrichment in control mice (MRT and fluorescence) (Aβ plaques [1]; non-transgenic control mice): neither for the MRT measurements nor the fluorescence measurements a specific enrichment
- enrichment in transgenic mice (MRT and fluorescence) (Aβ plaques [1]; transgenic APP23 mice, measurement period 90 minutes): a specific enrichment in the transgenic mice could be detected

Compound: CCN1CCOc2cc3c(cc21)Oc1cc2c(cc1=N3)OCC[N+]=2CC[18F] [Example 3, [F-18]-8-Ethyl-4-(2-Fluoroethyl)-3,8,9,10-tetrahydro-2H-bis([1,4]-oxazino)[2,3-b:3′,2′-i]phenoxazin-4-ium chloride]
- binding to Aβ plaques (summary of OI examinations) (Aβ plaques [2]; in vivo, OI): selectively binds to Aβ plaques
- accumulation in control mice (OI signal) (Aβ plaques [2]; non-transgenic control mice, 0.1 mg/kg body weight i.v., signal at 650 nm, FIG. 1): no accumulation could be detected
- accumulation in transgenic mice (OI signal) (Aβ plaques [2]; transgenic APPPS1 mice, 0.1 mg/kg body weight i.v., signal at 650 nm, FIG. 1 (age 12 months, 120 min after injection)): specifically accumulates in transgenic mice
- enrichment as a function of the age of the transgenic mice (Aβ plaques [2]; transgenic APPPS1 mice, 0.1 mg/kg i.v., OI): increases with the age of the transgenic mice
- enrichment in transgenic mice of an age of 2 months (Aβ plaques [2]; transgenic APPPS1 mice, age 2 months, 0.1 mg/kg i.v., OI, FIG. 2): no enrichment can be detected
- enrichment in transgenic mice at the age of 12 months (Aβ plaques [2]; transgenic APPPS1 mice, age 12 months, 0.1 mg/kg i.v., OI, FIG. 2): a significant enrichment can be seen

Compound: Oc1ccc2c(c1)N(CCBr)CCO2 [Example 13A, 4-(2-Bromoethyl)-3,4-dihydro-2H-benzo[b][1,4]oxazin-6-ol]
- decomposition on storage [3]: 50%
